From patent publication US20170066717A1, “NEW PHENYLAZETIDINECARBOXYLATE OR -CARBOXAMIDE COMPOUNDS” (INVENTIVA, priority 2014, published 2017)

What was measured:
[1] = molecular target: T1, NURR-1/RXRγ (Homo sapiens, UniProt P48443); test: Transactivation test, NURR-1-Gal4/RXRγ, luciferase reporter in Cos-7 cells; type: cell-based; settings: for Emax: COS-7, induction level relative to reference XCT0135908 at 2×10^−5 M (=100%), read-out: hNurr1_RXRgFL Emax (%); for EC50: Cos-7 cells, NURR-1-Gal4/RXRγ, luciferase reporter, read-out: hNurr1_RXRgFL EC50
T1 construct: expressed in transfected cells; host or cells: Cos-7 cells

[2] = molecular target: T2, NURR-1/RXRα (Homo sapiens, UniProt P19793); test: Transactivation test, NURR-1-Gal4/RXRα, luciferase reporter in Cos-7 cells; type: cell-based; settings: for Emax: COS-7, induction level relative to reference XCT0135908 at 2×10^−5 M (=100%), read-out: hNurr1_RXRaFL Emax (%); for EC50: Cos-7 cells, NURR-1-Gal4/RXRα, luciferase reporter, read-out: hNurr1_RXRaFL EC50
T2 construct: expressed in transfected cells; host or cells: Cos-7 cells
T2 sequence (P19793 whole entry, the tested form may be a part): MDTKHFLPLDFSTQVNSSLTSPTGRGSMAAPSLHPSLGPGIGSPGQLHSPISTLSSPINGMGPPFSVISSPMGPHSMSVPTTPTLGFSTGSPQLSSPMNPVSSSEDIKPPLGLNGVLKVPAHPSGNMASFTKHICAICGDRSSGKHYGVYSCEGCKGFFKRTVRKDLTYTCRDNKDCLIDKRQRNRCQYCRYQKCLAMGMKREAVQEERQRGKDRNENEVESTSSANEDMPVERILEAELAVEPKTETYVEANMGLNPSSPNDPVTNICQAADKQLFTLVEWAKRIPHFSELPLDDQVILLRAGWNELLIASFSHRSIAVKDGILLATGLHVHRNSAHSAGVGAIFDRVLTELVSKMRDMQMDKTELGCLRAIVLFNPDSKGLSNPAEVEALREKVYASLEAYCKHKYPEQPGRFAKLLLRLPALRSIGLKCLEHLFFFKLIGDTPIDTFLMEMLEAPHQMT
T2 sequence (P43354 whole entry partner, the tested form may be a part): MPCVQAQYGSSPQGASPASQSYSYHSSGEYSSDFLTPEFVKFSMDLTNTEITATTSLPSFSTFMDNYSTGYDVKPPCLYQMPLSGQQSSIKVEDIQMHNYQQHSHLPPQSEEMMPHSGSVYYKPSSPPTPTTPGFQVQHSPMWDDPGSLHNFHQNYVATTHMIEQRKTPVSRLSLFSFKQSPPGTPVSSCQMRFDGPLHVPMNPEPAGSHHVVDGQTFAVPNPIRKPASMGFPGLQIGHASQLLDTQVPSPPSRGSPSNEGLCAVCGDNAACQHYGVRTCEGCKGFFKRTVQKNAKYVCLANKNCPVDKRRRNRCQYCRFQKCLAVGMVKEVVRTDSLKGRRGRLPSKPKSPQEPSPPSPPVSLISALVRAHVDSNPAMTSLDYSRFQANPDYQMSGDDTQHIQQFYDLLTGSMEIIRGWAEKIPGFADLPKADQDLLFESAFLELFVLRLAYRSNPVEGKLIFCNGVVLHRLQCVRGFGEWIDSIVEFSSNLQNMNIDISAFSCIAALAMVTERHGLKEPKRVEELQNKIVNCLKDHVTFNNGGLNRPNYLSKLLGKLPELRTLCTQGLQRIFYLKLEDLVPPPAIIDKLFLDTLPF
T2 sequence (P04386 1-147 partner limits assumed): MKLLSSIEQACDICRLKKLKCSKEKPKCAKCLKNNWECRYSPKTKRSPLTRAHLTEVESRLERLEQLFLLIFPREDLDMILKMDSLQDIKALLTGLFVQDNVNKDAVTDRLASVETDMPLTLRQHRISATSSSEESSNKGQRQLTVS

T1 sequence (P48443 whole entry, the tested form may be a part): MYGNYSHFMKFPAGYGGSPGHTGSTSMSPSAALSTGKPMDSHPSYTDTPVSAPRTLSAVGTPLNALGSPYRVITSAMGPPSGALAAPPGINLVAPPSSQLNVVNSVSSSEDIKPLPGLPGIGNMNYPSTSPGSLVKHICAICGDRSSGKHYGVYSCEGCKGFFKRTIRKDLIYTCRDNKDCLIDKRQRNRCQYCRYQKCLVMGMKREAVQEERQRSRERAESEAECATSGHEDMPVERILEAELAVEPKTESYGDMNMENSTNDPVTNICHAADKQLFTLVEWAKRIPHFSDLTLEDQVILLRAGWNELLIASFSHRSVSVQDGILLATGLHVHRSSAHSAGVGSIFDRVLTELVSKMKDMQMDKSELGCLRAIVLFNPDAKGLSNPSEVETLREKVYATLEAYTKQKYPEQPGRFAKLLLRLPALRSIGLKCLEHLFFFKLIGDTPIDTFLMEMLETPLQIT
T1 sequence (P43354 whole entry partner, the tested form may be a part): as the sequence (P43354 whole entry partner, the tested form may be a part) above
T1 sequence (P04386 1-147 partner limits assumed): as the sequence (P04386 1-147 partner limits assumed) above

Row | SMILES | Emax [1] [%] | EC50 [1] [nM] | melting point [°C] | Emax [2] [%] | EC50 [2] [nM]
1 | CC(C)Cn1c(=O)n(-c2cccc(N3CC(C(=O)O)C3)c2)c2ccc(C(F)(F)F)cc21 [Example 148] | 130 | 56 | 134 to 144 | 122 | 31
2 | CC1(C)CCC2C(C1)c1cc(C(F)(F)F)ccc1N2c1cccc(N2CC(C(=O)O)C2)c1 (stereo not shown) [Example 145, 1-[3-[3,3-dimethyl-6-(trifluoromethyl)-2,4,4a,9a-tetrahydro-1H-carbazol-9-yl]phenyl]azetidine-3-carboxylic acid] | 96 | 6 | 96 to 100 | 98 | 4
3 | O=C(O)C1CN(c2cccc(N3C(=O)C4(CCCC4)c4cc(C(F)(F)F)ccc43)c2)C1 [Example 142, 1-[3-[2′-oxo-5′-(trifluoromethyl)spiro[cyclopentane-1,3′-indoline]-1′-yl]phenyl]azetidine-3-carboxylic acid] | 148 | 22 | 87 to 91 | 130 | 11
4 | CCC1CNc2c(cc(C(F)(F)F)cc2-c2cccc(N3CC(C(=O)O)C3)c2)O1 (stereo not shown) [Example 66, 1-[3-[2-ethyl-7-(trifluoromethyl)-3,4-dihydro-2H-1,4-benzoxazin-5-yl]phenyl]azetidine-3-carboxylic acid] | 95 | 25 | 115 to 121 | 98 | 8
5 | CC1(C)CN(c2cccc(N3CC(C(=O)O)C3)c2)c2ccc(C3CC3)cc2O1 [Example 229, 1-[3-(7-cyclopropyl-2,2-dimethyl-3H-1,4-benzoxazin-4yl)phenyl]azetidine-3-carboxylic acid] | 104 | 420 | 67 to 71 | 104 | 243
6 | CC1(C)CN(c2cccc(N3CC(C(=O)O)C3)c2)c2ccc(Cl)cc2O1 [Example 224, 1-[3-(7-chloro-2,2-dimtethyl-3H-1,4-benzoxazin-4-yl)phenyl]azetidine-3-carboxylic acid] | 93 | 65 | 66 to 71 | 110 | 38
7 | CC1COc2cc(C(F)(F)F)ccc2N1c1cccc(N2CC(C(=O)O)C2)c1 (stereo not shown) [Example 124, 1-[3-[3-methyl-7-(trifluoromethyl)-2,3-dihydro-1,4-benzoxazin-4-yl]phenyl]azetidine-3-carboxyltc add] | 139 | 29 | 62 to 70 | 137 | 19
8 | CC1(C)CCC2C(C1)c1cc(C(F)(F)F)ccc1N2c1cccc(N2CC(C(=O)O)C2)c1 (single isomer, unassigned; isomer 1) [Example 145-1, 1-[3-[3,3-dimethyl-6-(trifluoromethyl)-2,4,4a,9a-tetrahydro-1H-carbazol-9-yl]phenyl]azetidine-3-carboxylic acid (isomer 1)] | 90 | 103 | 84 to 91 | 82 | 37
9 | CC1(C)CNc2c(cc(C3CC3)cc2-c2cccc(N3CC(C(=O)O)C3)c2)O1 [Example 192, 1-[3-(7-cyclopropyl-2,2-dimethyl-3,4-dihydro-1,4-benzoxazin-5-yl)phenyl]azetidine-3-carboxylic acid] | 89 | 102 | 70 to 74 | 92 | 40
10 | O=C(O)C1CN(c2cccc(-c3cc(C(F)(F)F)cc4c3NCC3(CCC3)O4)c2)C1 [Example 62, 1-[3-[7-(trifluoromethyl)spiro[3,4-dihydro-1,4-benzoxazine-2,1′-cyclobutane]-5-yl]phenyl]azetidine-3-carboxylic acid] | 107 | 7 | 80 to 85 | 97 | 4
11 | O=C(O)C1CN(c2cccc(N3C(=O)COc4cc(C(F)(F)F)ccc43)c2)C1 [Example 252, 1-[3-[3-oxo-7-(trifluoromethyl)-1,4-benzoxazin-4-yl]phenyl]azetidine-3-carboxylic acid] | 96 | 2090 | 195 to 199 | 105 | 719
12 | Cc1cn(-c2cccc(N3CC(C(=O)NC4CC4)C3)c2)c2ccc(C(F)(F)F)cc12 [Example 184, N-cyclopropyl-1-[3-[3-methyl-5-(trifluoromethyl)indol-1-yl]phenyl]azetidine-3-carboxamide] | 91 | 7 | 182 to 184 | 90 | 5
13 | CCc1noc2cc(C(C)C)cc(-c3cccc(N4CC(C(=O)O)C4)c3)c12 [Example 72, 1-[3-(3-ethyl-6-isopropy;-1,2-benzoxazol-4-yl)phenyl]azetidine-3-carboxylic acid] | 112 | 40 | 63 to 69 | 97 | 7
14 | CC1(C)CNc2c(cc(C(C)(C)C)cc2-c2cccc(N3CC(C(=O)[O-])C3)c2)C1.[Na+] [Example 204, sodium 1-[3-(6-tert-butyl-3,3-dimethyl-2,4-dihydro-1H-quinolin-8-yl)phenyl]azetidine-3-carboxylate] | 84 | 3 | 163 to 173 | 87 | 3
15 | CC1(C)CN(c2cccc(N3CC(C(=O)O)C3)c2)c2ccccc2O1 [Example 119, 1-[3-(2,2-dimethyl-3H-1,4-benzoxazin-4-yl)phenyl]azetidine-3-carboxylic acid] | 94 | 512 | 59 to 64 | 101 | 238
16 | CC1COc2cc(C(F)(F)F)ccc2N1c1cccc(N2CC(C(=O)O)C2)c1 (single isomer, unassigned; isomer 1) [Example 124-1, 1-[3-[3-methyl-7-(trifluoromethyl)-2,3-dihydro-1,4-benzoxazin-4-yl]phenyl]azetidine-3-carboxylic acid, isomer 1] | 101 | 211 | 61 | 107 | 118
17 | CC1(C)CN(c2cccc(N3CC(C(=O)[O-])C3)c2)c2ncc(C(F)(F)F)cc2O1.[Na+] [Example 241, sodium 1-[3-[2,2-dimethyl-7-(trifluoromethyl)-3H-pyrido[3,2-b][1,4]oxazin-4-yl]phenyl]-azetidine-3-carboxylate] | 107 | 194 | 123 to 139 | 100 | 110
18 | CC(C)c1ccc2c(c1)c1c(n2-c2cccc(N3CC(C(=O)O)C3)c2)CCC(C)(C)C1 [Example 260, 1-[3-(6-isopropyl-3,3-dimethyl-2,4-1H-carbzaol-9-yl)phenyl]azetidine-3-carboxylic acid] | 56 | 551 | 55 to 82 | 56 | 255
19 | Cc1nc2cc(C(F)(F)F)ccc2n1-c1cccc(N2CC(C(=O)O)C2)c1 [Example 262, 1-[3-[2-methyl-5-(trifluoromethyl)benzimidazol-1-yl]phenyl]azetidine-3carboxylic acid] | 98 | 2830 | 94 to 96 | 81 | 1700
20 | CCC1(C)C=C(c2cccc(N3CC(C(=O)[O-])C3)c2)c2ccc(C(F)(F)F)cc2O1.[Na+] (stereo not shown) [Example 266, sodium 1-[3-[2-ethyl-2-methyl-7-(trifluoromethyl)chromen-4-yl]phenyl]azetidine-3-carboxylate] | 113 | ~1 | 201 to 214 | 112 | 1
21 | CCC1(CC)C(=O)N(c2cccc(N3CC(C(=O)O)C3)c2)c2ccc(C(F)(F)F)cc21 [Example 258, 1-[3-[3,3-diethyl-2-oxo-5-(trifluoromethyl)indolin-1-yl]phenyl]azetidine-carboxylic acid] | 107 | 755 | 159 to 161 | 102 | 236
22 | O=C(O)C1CN(c2cccc(N3c4ccc(C(F)(F)F)cc4C4CC43)c2)C1 (stereo not shown) [Example 143, 1-[3-[5-(trifluoromethyl)-1a,6b-dihydro-1H-cyclopropa[b]indol-2-yl]phenyl]azetidine-3-carboxylic acid] |  | 45 | 67 to 71 | 97 | 18
23 | CCC1(CC)CN(c2cccc(N3CC(C(=O)O)C3)c2)c2ccc(C(F)(F)F)cc21 [Example 255, 1-[3-[3,3-diethyl-5-(trifluoromethyl)indolin-1-yl]phenyl]azetidine-3-carboxylic acid] | 103 | 44 | 83 | 104 | 18
24 | O=C(O)C1CN(c2cccc(-n3cc(CC4CCOC4)c4cc(C(F)(F)F)ccc43)c2)C1 (stereo not shown) [Example 128, 1-[3-[3-(tetrahydrofuran-3-ylmethyl)-5-(trifluromethyl)indol-1-yl]phenyl]adetidine-3-carboxylic acid] | 105 | 6 | 63 to 67 | 110 | 3
25 | CCC1(CC)CN(c2cccc(N3CC(C(=O)O)C3)c2)c2ccc(C(F)(F)F)cc2O1 [Example 218, 1-[3-[2,2-diethyl-7-(trifluoromethyl)-3H-1,4-benzoxazin-4-yl]phenyl]azetidine-3-carboxylic acid] | 73 | 14 | 70 to 79 | 72 | 5
